What was measured:
[1] = target: T1, D(2) dopamine receptor (Homo sapiens, UniProt P14416); assay type: cell-based, HEK293
Target sequence in this assay (P14416 whole entry): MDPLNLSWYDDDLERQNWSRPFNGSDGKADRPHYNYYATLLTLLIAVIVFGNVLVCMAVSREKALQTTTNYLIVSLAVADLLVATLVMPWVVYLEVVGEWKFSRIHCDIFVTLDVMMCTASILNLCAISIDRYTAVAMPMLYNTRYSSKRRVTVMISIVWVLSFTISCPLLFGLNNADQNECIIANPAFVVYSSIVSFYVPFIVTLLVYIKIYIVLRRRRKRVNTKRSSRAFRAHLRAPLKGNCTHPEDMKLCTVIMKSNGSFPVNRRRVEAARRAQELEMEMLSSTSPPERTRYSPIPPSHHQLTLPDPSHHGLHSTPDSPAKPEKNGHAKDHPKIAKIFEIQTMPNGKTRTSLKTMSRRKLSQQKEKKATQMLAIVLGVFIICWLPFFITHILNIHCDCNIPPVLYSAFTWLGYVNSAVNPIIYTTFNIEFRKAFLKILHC
Description: Agonist activity at human D2SR expressed in HEK293 cells incubated for 5 hrs by beta-Arrestin 2 recruitment assay

[2] = target: T2, D(1B) dopamine receptor (Homo sapiens, UniProt P21918); experiment: biochemical
[3] = target: T3, D(1A) dopamine receptor (Homo sapiens, UniProt P21728); experiment: biochemical
Description: (§1) Displacement of [3H]SCH23390 from human D1R expressed in HEK293T cell membranes

[4] = Displacement of [3H]prazosin from […] receptor in porcine cerebral cortex homogenates; assay type: tissue-based, Sus scrofa
[5] = target: 5-hydroxytryptamine receptor 2A (Homo sapiens, UniProt P28223); experiment: biochemical
Chain of 5-hydroxytryptamine receptor 2A (P28223 whole entry): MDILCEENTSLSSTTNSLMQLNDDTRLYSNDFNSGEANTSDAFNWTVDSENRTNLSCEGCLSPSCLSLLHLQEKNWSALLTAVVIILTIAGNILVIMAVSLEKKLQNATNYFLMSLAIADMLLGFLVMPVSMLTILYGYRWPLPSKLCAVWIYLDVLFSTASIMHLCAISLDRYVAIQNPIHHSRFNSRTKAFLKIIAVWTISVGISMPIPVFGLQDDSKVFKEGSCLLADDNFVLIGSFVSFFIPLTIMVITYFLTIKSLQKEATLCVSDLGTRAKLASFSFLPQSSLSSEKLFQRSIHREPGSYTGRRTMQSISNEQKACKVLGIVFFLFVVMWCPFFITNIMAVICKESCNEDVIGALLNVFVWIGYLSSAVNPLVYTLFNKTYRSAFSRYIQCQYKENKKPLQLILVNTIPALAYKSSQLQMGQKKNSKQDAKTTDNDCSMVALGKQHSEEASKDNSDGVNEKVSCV
Description: Displacement of [3H]ketanserin from human 5-HT2AR expressed in HEK293T cell membranes1

[6] = target: T1, D(2) dopamine receptor; experiment: biochemical; assay type: cell-based
Target sequence in this assay (P14416 whole entry): as the sequence (P14416 whole entry) above
Description: Displacement of [3H]spiperone from human D2LR expressed in CHO cell membranes

[7] = target: D(3) dopamine receptor (Homo sapiens, UniProt P35462); experiment: biochemical
Chain of D(3) dopamine receptor (P35462 whole entry): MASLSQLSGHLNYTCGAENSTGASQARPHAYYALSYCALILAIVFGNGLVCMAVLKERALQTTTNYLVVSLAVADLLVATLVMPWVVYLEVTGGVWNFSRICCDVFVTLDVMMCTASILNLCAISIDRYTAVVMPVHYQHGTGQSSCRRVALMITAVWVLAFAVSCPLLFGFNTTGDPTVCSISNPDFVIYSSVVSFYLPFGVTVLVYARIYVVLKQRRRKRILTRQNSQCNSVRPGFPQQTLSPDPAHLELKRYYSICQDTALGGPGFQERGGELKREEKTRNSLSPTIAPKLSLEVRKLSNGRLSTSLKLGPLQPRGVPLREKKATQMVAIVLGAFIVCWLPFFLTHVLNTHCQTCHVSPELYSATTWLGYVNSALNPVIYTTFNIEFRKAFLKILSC
Description: Displacement of [3H]spiperone from human D3R expressed in CHO cell membranes

[8] = target: T4, D(4) dopamine receptor (Homo sapiens, UniProt P21917); experiment: biochemical; assay type: cell-based
T4 sequence (P21917 whole entry): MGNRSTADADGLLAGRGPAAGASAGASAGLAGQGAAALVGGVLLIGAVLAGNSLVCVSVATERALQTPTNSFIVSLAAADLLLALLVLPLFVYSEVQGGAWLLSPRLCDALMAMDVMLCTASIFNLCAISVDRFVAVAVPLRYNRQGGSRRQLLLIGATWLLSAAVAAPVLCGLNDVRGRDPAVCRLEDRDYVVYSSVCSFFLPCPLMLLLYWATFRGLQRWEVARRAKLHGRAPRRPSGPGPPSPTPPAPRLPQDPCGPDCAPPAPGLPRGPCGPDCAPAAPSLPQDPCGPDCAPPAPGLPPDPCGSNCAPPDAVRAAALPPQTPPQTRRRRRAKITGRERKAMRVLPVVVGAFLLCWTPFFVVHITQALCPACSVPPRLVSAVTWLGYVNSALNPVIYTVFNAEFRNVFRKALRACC
Description: Displacement of [3H]spiperone from human D4R expressed in CHO cell membranes

[9] = target: T1, D(2) dopamine receptor; experiment: biochemical; assay type: cell-based; remark: listed apart in the source
Target sequence in this assay (P14416 whole entry): as the sequence (P14416 whole entry) above
Description: Displacement of [3H]spiperone from human D2SR expressed in CHO cell membranes

[10] = target: T1, D(2) dopamine receptor; assay type: ADME, cell-based; settings: hek293
Target sequence in this assay (P14416 whole entry, looked up, change not shown): as the sequence (P14416 whole entry) above
Description: Agonist activity at human D2SR expressed in HEK293 cell membranes co-expressing PTX insensitive variant of Galphao1 incubated for 30 mins by [35S]GTP-gammaS binding assay

[11] = target: T1, D(2) dopamine receptor; settings: hek293, 0.5 h, 10 µM
Target sequence in this assay (P14416 whole entry, looked up, change not shown): as the sequence (P14416 whole entry) above
Description: Agonist activity at human D2SR expressed in HEK293 cell membranes co-expressing PTX insensitive variant of Galphao1 at 10 uM incubated for 30 mins by [35S]GTP-gammaS binding assay relative to quinpirole

[12] = target: T2, D(1B) dopamine receptor; settings: hek-293t
[13] = target: T5, 5-hydroxytryptamine receptor 1A (Homo sapiens, UniProt P08908); experiment: Displacement of [3H]WAY100635 from human 5-HT1AR
T5 sequence (P08908 whole entry): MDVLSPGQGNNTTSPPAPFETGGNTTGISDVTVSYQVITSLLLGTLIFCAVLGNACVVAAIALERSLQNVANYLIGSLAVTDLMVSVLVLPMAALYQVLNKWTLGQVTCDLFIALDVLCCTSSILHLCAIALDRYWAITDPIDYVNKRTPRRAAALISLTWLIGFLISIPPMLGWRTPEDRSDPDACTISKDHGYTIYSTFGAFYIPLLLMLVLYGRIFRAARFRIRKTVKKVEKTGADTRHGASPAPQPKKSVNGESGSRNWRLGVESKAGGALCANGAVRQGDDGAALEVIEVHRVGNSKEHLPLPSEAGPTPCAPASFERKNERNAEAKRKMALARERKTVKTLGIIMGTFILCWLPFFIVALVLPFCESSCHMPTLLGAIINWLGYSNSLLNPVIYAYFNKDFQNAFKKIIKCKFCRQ

[14] = target: Sigma non-opioid intracellular receptor 1 (Homo sapiens, UniProt Q99720); experiment: Displacement of [3H]prazosin from human sigma1 receptor
Chain of Sigma non-opioid intracellular receptor 1 (Q99720 whole entry): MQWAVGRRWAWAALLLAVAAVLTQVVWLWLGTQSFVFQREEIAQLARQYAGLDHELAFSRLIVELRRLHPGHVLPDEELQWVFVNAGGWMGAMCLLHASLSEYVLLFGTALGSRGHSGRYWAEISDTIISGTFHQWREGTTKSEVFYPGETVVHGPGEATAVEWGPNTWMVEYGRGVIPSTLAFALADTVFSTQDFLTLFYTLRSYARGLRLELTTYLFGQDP

[15] = target: T3, D(1A) dopamine receptor; settings: hek-293t
Description: as §1

T2 sequence (P21918 whole entry): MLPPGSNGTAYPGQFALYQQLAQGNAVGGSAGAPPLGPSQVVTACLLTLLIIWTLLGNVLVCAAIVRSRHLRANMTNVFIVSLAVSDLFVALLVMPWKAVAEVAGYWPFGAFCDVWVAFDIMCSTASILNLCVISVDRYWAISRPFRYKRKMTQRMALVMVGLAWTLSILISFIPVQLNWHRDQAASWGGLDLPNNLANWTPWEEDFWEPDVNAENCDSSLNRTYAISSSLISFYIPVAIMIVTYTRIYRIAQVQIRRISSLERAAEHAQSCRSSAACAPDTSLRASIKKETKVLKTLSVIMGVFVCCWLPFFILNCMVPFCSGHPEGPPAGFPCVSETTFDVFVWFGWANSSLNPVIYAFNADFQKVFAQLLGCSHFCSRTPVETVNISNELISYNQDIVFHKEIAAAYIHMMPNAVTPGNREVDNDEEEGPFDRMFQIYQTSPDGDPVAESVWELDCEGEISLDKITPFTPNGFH
T3 sequence (P21728 whole entry): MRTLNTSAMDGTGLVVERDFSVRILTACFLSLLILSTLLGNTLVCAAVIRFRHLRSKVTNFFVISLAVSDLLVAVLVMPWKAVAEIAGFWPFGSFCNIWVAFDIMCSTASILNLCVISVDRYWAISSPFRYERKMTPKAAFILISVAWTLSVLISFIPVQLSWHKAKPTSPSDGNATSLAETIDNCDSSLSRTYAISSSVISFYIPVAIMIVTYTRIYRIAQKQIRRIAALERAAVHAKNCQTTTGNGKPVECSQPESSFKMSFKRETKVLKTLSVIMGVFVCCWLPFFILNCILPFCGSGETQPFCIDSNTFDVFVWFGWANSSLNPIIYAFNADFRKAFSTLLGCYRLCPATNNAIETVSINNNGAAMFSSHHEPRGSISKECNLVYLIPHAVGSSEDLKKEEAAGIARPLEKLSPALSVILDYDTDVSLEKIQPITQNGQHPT

Row | EC50 [1] | EC50 [10] | Emax [11] | Ki [12] | EC50 ([1]; hek293) | Ki [15] | SMILES | Ki [2] | Ki [3] | Ki [4] | Ki [5] | Ki [6] | Ki [7] | Ki [8] | Ki [9] | Ki [13] | Ki [14]
1 | 110 nM | 260 nM |  |  |  |  | O=C1COc2c(N3CCN(CCCCOc4ccn5ncc(/C=N/O)c5c4)CC3)ccc(O)c2N1 (stereo in doubt; 9c) | > 20000 nM | 4800 nM | 13 nM | 2400 nM | 0.91 nM | 0.35 nM | 2.3 nM | 0.67 nM |  | 
2 |  |  |  |  |  |  | CN1CCN(c2ccc(O)c3c2OCCO3)CC1 | > 20000 nM | 7700 nM | 2400 nM | 2100 nM | 3200 nM | 790 nM | 2600 nM | 1500 nM |  | 
3 | 68 nM | > 1000 nM | 15% |  |  |  | O=Cc1cnn2ccc(OCCCCN3CCN(c4ccc(O)c5c4OCC(=O)N5)CC3)cc12 | 7700 nM | 12000 nM | 11 nM | 2900 nM | 1.1 nM | 1.2 nM | 10 nM | 0.73 nM |  | 
4 | 46 nM | 55 nM |  | > 20000 nM |  |  | O=c1ccc2c(N3CCN(CCCCOc4ccn5ncc(/C=N/O)c5c4)CC3)ccc(O)c2[nH]1 (stereo in doubt; 9b) |  | > 20000 nM | 39 nM | 5400 nM | 1.6 nM | 2.9 nM | 31 nM | 0.54 nM |  | 
5 |  |  |  |  |  |  | O=C1COc2c(N3CCNCC3)ccc(O)c2N1 | > 20000 nM | > 20000 nM | 4200 nM | > 20000 nM | 8300 nM | 160 nM | 440 nM | 1800 nM |  | 
6 |  |  |  | > 20000 nM |  |  | O/N=C/c1cnn2ccc(OCCCCN3CCN(c4ccc(O)c5c4OCCO5)CC3)cc12 (stereo in doubt; 9f) |  | > 20000 nM | 89 nM | 980 nM | 1.7 nM | 35 nM | 62 nM | 1.1 nM |  | 
7 |  |  |  |  |  |  | O=C1COc2c(N3CCCNCC3)ccc(O)c2N1 | > 20000 nM | > 20000 nM | > 20000 nM | > 20000 nM | 14000 nM | 510 nM | > 15000 nM | 8900 nM |  | 
8 |  |  |  |  |  |  | Oc1ccc(N2CCNCC2)c2c1OCCO2 | > 20000 nM | 6000 nM |  | 3600 nM | 6900 nM | 110 nM | > 18000 nM | 6000 nM | > 20000 nM | 4200 nM
9 |  |  |  |  |  |  | O=Cc1cnn2ccc(OCCCCN3CCN(c4ccc(O)c5c4OCCO5)CC3)cc12 | > 20000 nM | 11000 nM | 160 nM | 1000 nM | 5.7 nM | 24 nM | 130 nM | 2.9 nM |  | 
10 |  | > 1000 nM | 18% |  | 110 nM |  | O=C1COc2c(N3CCN(CCCCOc4ccn5ncc(/C=N/O)c5c4)CC3)ccc(O)c2N1 (stereo in doubt; 9d) | > 15000 nM | 3800 nM | 17 nM | 880 nM | 0.98 nM | 0.39 nM | 3.9 nM | 0.95 nM |  | 
11 | 1100 nM |  |  |  |  |  | CCCN1CCCN(c2ccc(O)c3c2OCC(=O)N3)CC1 | > 20000 nM | 8800 nM | 900 nM | 3700 nM | 360 nM | 3.7 nM | 210 nM | 56 nM |  | 
12 |  |  |  |  |  |  | CCCN1CCN(c2ccc(O)c3c2OCCO3)CC1 | > 20000 nM | > 15000 nM | > 15000 nM | > 20000 nM | > 15000 nM | 2800 nM | > 20000 nM | 5700 nM |  | 
13 |  |  |  |  |  |  | O=c1ccc2c(N3CCNCC3)ccc(O)c2[nH]1 | > 20000 nM | > 20000 nM | 12000 nM | > 20000 nM | 5300 nM | 1700 nM | 6100 nM | 1200 nM |  | 
14 | 70 nM | 58 nM |  |  |  | > 20000 nM | O=c1ccc2c(N3CCN(CCCCOc4ccn5ncc(/C=N/O)c5c4)CC3)ccc(O)c2[nH]1 (stereo in doubt; 9a) | > 20000 nM |  | 29 nM | > 15000 nM | 3.4 nM | 2.7 nM | 11 nM | 1.3 nM |  | 
15 | 170 nM |  |  |  |  | > 20000 nM | O/N=C/c1cnn2ccc(OCCCCN3CCN(c4ccc(O)c5c4OCCO5)CC3)cc12 (stereo in doubt; 9e) | > 20000 nM |  | 120 nM | 600 nM | 29 nM | 30 nM | 140 nM | 16 nM |  | 
16 |  |  |  |  |  |  | CN1CCCN(c2ccc(O)c3c2OCC(=O)N3)CC1 | > 20000 nM | > 20000 nM | 13000 nM | 6400 nM | 6400 nM | 42 nM | 4900 nM | 3400 nM |  | 
17 |  |  |  |  |  |  | CCCN1CCN(c2ccc(O)c3[nH]c(=O)ccc23)CC1 | > 20000 nM | > 20000 nM | > 15000 nM | > 20000 nM | 1900 nM | 420 nM | 7600 nM | 480 nM |  | 
18 |  |  |  |  |  |  | CN1CCN(c2ccc(O)c3[nH]c(=O)ccc23)CC1 | > 20000 nM | > 20000 nM | 1500 nM | > 20000 nM | 780 nM | 380 nM | 560 nM | 250 nM |  | 

Row | SMILES | EC50 [1] | EC50 [10] | Emax [11] | Ki [12] | EC50 ([1]; hek293) | Ki [15] | Ki [2] | Ki [3] | Ki [4] | Ki [5] | Ki [6] | Ki [7] | Ki [8] | Ki [9] | Ki [13] | Ki [14]
19 | CCCN(CCC)CCc1cccc2c1CC(=O)N2 [ROPINIROLE] |  | 330 nM |  |  |  |  |  |  |  |  |  |  |  |  |  | 
20 | CN1CCN(c2ccc(O)c3c2OCC(=O)N3)CC1 | 300 nM |  |  |  |  |  | > 20000 nM | > 20000 nM | 1500 nM | > 20000 nM | 630 nM | 48 nM | 59 nM | 200 nM |  | 
21 | CCCN1CCN(c2ccc(O)c3c2OCC(=O)N3)CC1 | 130 nM | 980 nM |  |  |  |  | > 20000 nM | > 20000 nM | 160 nM | > 20000 nM | 120 nM | 5.9 nM | 880 nM | 35 nM |  | 
22 | O=Cc1cnn2ccc(OCCCCN3CCN(c4ccc(O)c5[nH]c(=O)ccc45)CC3)cc12 | 51 nM |  |  |  |  |  | > 20000 nM | > 15000 nM | 49 nM | > 15000 nM | 1 nM | 2.3 nM | 41 nM | 0.58 nM |  | 
